From patent publication US8586755B2, “Substituted nicotinamides as KCNQ2/3 modulators” (Grünenthal GmbH, priority 2009, dated 2013)

Experiments:
KCNQ2/3 channels = molecular target: T1, KCNQ2/3 channels (Homo sapiens, UniProt O43525+O43526); experiment: Fluorescence assay using a voltage sensitive dye (fluorimetry); format: cell-based; details: CHO-K1 cells expressing KCNQ2/3 channels; for EC50: agonistic activity; for Emax: read-out: Fluorimetry % efficacy (retigabine 50 μM = 100%)
T1 construct: expressed in transfected cells
Summary of the method: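 CHO-K1 cells expressing human KCNQ2/3, loaded 45 min with red membrane-potential dye in ES buffer pH 7.4 (1 mM KCl), compound 30 min at room temperature. Fluorescence (525/560 nm) read before (F1) and at peak after KCl to 92 mM final (F2); agonism from F2/F1 change, EC50 fitted.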

Sprague-Dawley rats = experiment: Low-intensity tail flick in the rat; format: in vivo; details: for inhibition in vivo at 10 mg/kg / inhibition in vivo at 21.5 mg/kg / ED50: po; for inhibition in vivo at 10 mg/kg / inhibition in vivo at 21.5 mg/kg: read-out: Low-intensity tail flick rat p.o. % effect (dose [mg/kg])
Source text: Low-Intensity Tail Flick in the Rat
The antinociceptive effectiveness of the test substance towards an acute, noxious thermal stimulus was studied in the focal ray (tail flick) test in the rat according to the method of D'Amour and Smith (J. Pharm. Exp. Ther. 72, 74 79 (1941)). Male Sprague-Dawley rats (breeder: Janvier, Le Genest St. Isle, France) weighing from 200 to 250 g were used for this purpose. The animals were accommodated individually in special test compartments and the base of the tail was exposed to the focused ray of an analgesia meter (model 2011, Rhema Labortechnik, Hofheim, Germany). 10 animals were used per group. Before a substance according to the invention was administered, the withdrawal latency (time from switching on of the focal ray to the sudden withdrawal of the tail) was determined twice at an interval of five minutes and the mean value was defined as the control latency time. The intensity of the focal ray was chosen so that the control latency time was 7 to 9 seconds. Measurement of the withdrawal latency was then repeated 10, 20, 30 and 60 minutes after peroral administration of substance. The antinociceptive action of the test substance was determined as the increase in the withdrawal latency time according to the following formula: MPE[%]=[(T1−T0)/(T2−T0)]×100 where: T0=control latency time before administration of substance, T1=latency time after administration of substance, T2=maximum exposure time to the focal ray (30 seconds), MPE=maximum possible effect.
Variance analysis (repeated measures ANOVA) was used to test for statistically significant differences between the substance group and the vehicle group. The level of significance was set at ≦0.05.

Compound	EC50 (KCNQ2/3 channels)	Emax (KCNQ2/3 channels; retigabine 50 μM = 100%)	Fluorimetry % efficacy (retigabine 50 μM = 100%) (KCNQ2/3 channels; retigabine 50 μM = 100%)	inhibition in vivo at 10 mg/kg (Sprague-Dawley rats; MPE)	inhibition in vivo at 21.5 mg/kg (Sprague-Dawley rats; dose 21.5 mg/kg, MPE)	Low-intensity tail flick rat p.o. % effect (dose [mg/kg]) (Sprague-Dawley rats; dose 21.5 mg/kg, MPE)	ED50 (Sprague-Dawley rats)
O=C(NCC1CC2CCC1C2)c1cccnc1SCCCc1cccc(C(F)(F)F)c1 (stereo not drawn) [compound 27, N-(5-Bicyclo[2.2.1]heptanyl-methyl)-2-[3-[3-(trifluoromethyl)phenyl]-propylsulfanyl]-pyridine-3-carboxylic acid amide]	85 nM	210%		18%			
O=C(NCC1CCCCC1)c1cccnc1SCCCc1ccc(F)cc1 [compound 40, N-(Cyclohexyl-methyl)-2-[3-(4-fluorophenyl)-propylsulfanyl]-pyridine-3-carboxylic acid amide]	129 nM	144%			26%		
O=C(NCC1CC2CCC1C2)c1cccnc1SCCCc1ccc(F)cc1 (stereo not drawn) [compound 51]	198 nM		192%			49 (21.5) %	
O=C(NCC1CC2CCC1C2)c1cccnc1SCCCc1ccc(C(F)(F)F)c(F)c1 (stereo not drawn) [compound 53, N-(5-Bicyclo[2.2.1]heptanyl-methyl)-2-[3-[3-fluoro-4-(trifluoromethyl)-phenyl]-propylsulfanyl]-pyridine-3-carboxylic acid amide]	302 nM	220%		0%			
O=C(NCC1CC2CCC1C2)c1cccnc1SCCCc1ccc(F)c(C(F)(F)F)c1 (stereo not drawn) [compound 54, N-(5-Bicyclo[2.2.1]heptanyl-methyl)-2-[3-[4-fluoro-3-(trifluoromethyl)-phenyl]-propylsulfanyl]-pyridine-3-carboxylic acid amide]	133 nM	240%		20%			
O=C(NCC1CC2CCC1C2)c1cccnc1SCCCc1cc(F)c(F)c(F)c1 (stereo not drawn) [compound 68, N-(5-Bicyclo[2.2.1]heptanyl-methyl)-2-[3-(3,4,5-trifluoro-phenyl)-propylsulfanyl]-pyridine-3-carboxylic acid amide]	65 nM	280%		32%			
CC(CCc1cccc(C(F)(F)F)c1)Sc1ncccc1C(=O)NCc1cccs1 (stereo not drawn) [compound 107, 2-[[1-Methyl-3-[3-(trifluoromethyl)phenyl]-propyl]sulfanyl]-N-(thiophen-2-yl-methyl)-pyridine-3-carboxylic acid amide]	57 nM	119%			20%		
CC(C)(C)CCNC(=O)c1cccnc1SCCC(F)(F)c1ccc(F)cc1 [compound 116, 2-[[3,3-Difluoro-3-(4-fluorophenyl)-propyl]sulfanyl]-N-(3,3-dimethyl-butyl)-pyridine-3-carboxylic acid amide]	62 nM	186%					5.4 mg/kg
CC(C)CCNC(=O)c1cccnc1SCCCc1ccc(F)cc1 [compound 133, 2-[3-(4-Fluorophenyl)-propylsulfanyl]-N-(3-methyl-butyl)-pyridine-3-carboxylic acid amide]	106 nM	185%		61%			
CC(C)CCNC(=O)c1cccnc1SC(C)CCc1cccc(F)c1 (stereo not drawn) [compound 202, 2-[[3-(3-Fluorophenyl)-1-methyl-propyl]sulfanyl]-N-(3-methyl-butyl)-pyridine-3-carboxylic acid amide]	71 nM	235%					
O=C(NCC12CCC(CC1)C2)c1cccnc1SCCCc1ccc(F)cc1 [compound 206, N-(1-Bicyclo[2.2.1]heptanyl-methyl)-2-[3-(4-fluorophenyl)-propylsulfanyl]-pyridine-3-carboxylic acid amide]	40 nM	293%					
O=C(NCCO)c1cccnc1SCCC(F)(F)c1ccc(F)cc1 [compound 211, 2-[[3,3-Difluoro-3-(4-fluorophenyl)-propyl]sulfanyl]-N-(2-hydroxy-ethyl)-pyridine-3-carboxylic acid amide]	8830 nM	87%					

Continued by falling EC50 (KCNQ2/3 channels), values first:

EC50 (KCNQ2/3 channels)	Emax (KCNQ2/3 channels; retigabine 50 μM = 100%)	Fluorimetry % efficacy (retigabine 50 μM = 100%) (KCNQ2/3 channels; retigabine 50 μM = 100%)	Compound	inhibition in vivo at 10 mg/kg (Sprague-Dawley rats; MPE)	inhibition in vivo at 21.5 mg/kg (Sprague-Dawley rats; dose 21.5 mg/kg, MPE)	Low-intensity tail flick rat p.o. % effect (dose [mg/kg]) (Sprague-Dawley rats; dose 21.5 mg/kg, MPE)	ED50 (Sprague-Dawley rats)
40 nM	97%		O=C(NCc1ccc(F)cc1)c1cccnc1SCCCc1ccc(F)cc1 [compound 65, N-[(4-Fluorophenyl)-methyl]-2-[3-(4-fluorophenyl)-propylsulfanyl]-pyridine-3-carboxylic acid amide]	49%			
40 nM	230%		CC(C)CCNC(=O)c1cccnc1SC(C)CCc1ccc(F)c(F)c1 (stereo not drawn) [compound 200, 2-[[3-(3,4-Difluoro-phenyl)-1-methyl-propyl]sulfanyl]-N-(3-methyl-butyl)-pyridine-3-carboxylic acid amide]				
40 nM	128%		CC(CCc1cccc(F)c1)Sc1ncccc1C(=O)NCc1ccc(F)cc1 (stereo not drawn) [compound 201, N-[(4-Fluorophenyl)-methyl]-2-[[3-(3-fluorophenyl)-1-methyl-propyl]sulfanyl]-pyridine-3-carboxylic acid amide]				
34 nM	119%		O=C(NCc1ccc(F)cc1)c1cccnc1SCCCc1cccc(C(F)(F)F)c1 [compound 207, N-[(4-Fluorophenyl)-methyl]-2-[3-[3-(trifluoromethyl)phenyl]-propylsulfanyl]-pyridine-3-carboxylic acid amide]				
28 nM	294%		O=C(NCC12CCC(CC1)C2)c1cccnc1SCCC(F)(F)c1ccc(F)cc1 [compound 205, N-(1-Bicyclo[2.2.1]heptanyl-methyl)-2-[[3,3-difluoro-3-(4-fluorophenyl)-propyl]sulfanyl]-pyridine-3-carboxylic acid amide]				
27 nM	207%		CC(C)CCNC(=O)c1cccnc1SCCCc1cccc(C(F)(F)F)c1 [compound 208, N-(3-Methyl-butyl)-2-[3-[3-(trifluoromethyl)phenyl]-propylsulfanyl]-pyridine-3-carboxylic acid amide]				
20 nM	233%		CC(C)CCNC(=O)c1cccnc1SC(C)CCc1cccc(C(F)(F)F)c1 (stereo not drawn) [compound 203, N-(3-Methyl-butyl)-2-[[1-methyl-3-[3-(trifluoromethyl)phenyl]-propyl]sulfanyl]-pyridine-3-carboxylic acid amide]				
17 nM	114%		O=C(NCc1ccc(F)cc1)c1cccnc1SCCC(F)(F)c1ccc(F)cc1 [compound 124, 2-[[3,3-Difluoro-3-(4-fluorophenyl)-propyl]sulfanyl]-N-[(4-fluorophenyl)-methyl]-pyridine-3-carboxylic acid amide]				3.5 mg/kg
14 nM	276%		O=C(NCC1C2CCC1CC2)c1cccnc1SCCC(F)(F)c1ccc(F)c(F)c1 (stereo not drawn) [compound 210, N-(7-Bicyclo[2.2.1]heptanyl-methyl)-2-[[3-(3,4-difluoro-phenyl)-3,3-difluoro-propyl]sulfanyl]-pyridine-3-carboxylic acid amide]				
11 nM	125%		O=C(NCc1ccc(F)cc1)c1cccnc1SCCC(F)(F)c1ccc(F)c(F)c1 [compound 204, 2-[[3-(3,4-Difluoro-phenyl)-3,3-difluoro-propyl]sulfanyl]-N-[(4-fluorophenyl)-methyl]-pyridine-3-carboxylic acid amide]				
9 nM	228%		CC(C)CCNC(=O)c1cccnc1SCCC(F)(F)c1ccc(F)c(F)c1 [compound 209, 2-[[3-(3,4-Difluoro-phenyl)-3,3-difluoro-propyl]sulfanyl]-N-(3-methyl-butyl)-pyridine-3-carboxylic acid amide]				
